Entries after “also recorded” stand apart in the source; their conditions may differ.
Key:
[1] = Dynamic vapor sorption (DVS) isotherm; assay type: physicochemical; details: for DVS hysteresis: 5 to 95 to 5% RH; for XRPD of post DVS sample (solid form): material recovered after DVS cycle ending at 5% RH
Source text: As used herein, DVS (Dynamic Vapor Sorption) is a gravimetric technique to measure the rate and amount of absorption of a solvent by a sample under controlled conditions. […]

[2] = Polymorph screen: ambient slurries of Form A in solvents, XRPD; assay type: physicochemical; details: 14 d
Method: A polymorph screening study was initiated to investigate the presence and identity of various solid materials that may be possible for Alpha-1062 Gluconate. This study used lot CA19-1144 as the starting material and utilized various solvent systems and conditions to isolate and study the materials produced during the studies (Table 5). The various materials were analyzed by XRPD and the various solid forms identified as shown (FIG. 6).

[3] = Water activity (aw) slurries in mixed aqueous/organic solvent systems, XRPD; assay type: physicochemical; details: for Result (solid form after slurry): ambient; for Water activity at which the form is the most stable form: from water activity slurries and RH stressing, Form C: above 0.12 aw up to the value
Source text: (§1) To investigate the stability of the four pure crystalline forms of Alpha-1062 Gluconate, water activity (aw) slurries using a variety of mixed aqueous/organic solvent systems (Table 6) along with relative humidity stressing (Table 7) were used to define the regions of stability for the given hydrates of Alpha-1062 Gluconate.

[4] = Relative humidity stressing of solid samples, XRPD; assay type: physicochemical
Source text: as §1

[5] = Heat / vacuum stressing analysed by XRPD; assay type: physicochemical
Method: Form B: Alpha-1062 Gluconate, Sample 8235-82-08 (Table 10). Form B is a tetrahydrate crystalline lattice. It appears that at least one of the four water sites in the crystal lattice is somewhat labile. […] The formula unit volume of 772 Å^3 calculated from the indexing results is larger than Form A by 84 Å^3. […] A broad endotherm with an onset of 66° C. (concurrent with weight loss in the TGA) is observed in the DSC consistent with desolvation. […] Upon desorption, 1.8% weight loss from 95-15% RH followed by 6.8% weight loss from 15-5% RH was observed. The DVS data was corrected for water content measured by KF at 57% RH (FIG. 18). A stable plateau of between 3.6 and 3.9 mol/mol of water for Form B is evident between 15 and 85% RH.
Form C: Alpha-1062 Gluconate, Sample 8235-87-02 (Table 11). Form C was determined to be a monohydrate crystal lattice occupied at only about 0.4 to 0.5 mol/mol of water. […] The XRPD pattern was successfully indexed by a single primitive monoclinic unit cell. The formula unit volume of 706 Å^3 calculated from the indexing results is larger than Form A by 18 Å^3. […] An endotherm with an onset of 119° C. is observed in the DSC. • Form C (sample 8235-92-04) was held at 11% RH for seven days and analyzed by XRPD and DSC for comparison (sample 8296-08-01). […] The DVS data was corrected for water content measured by KF at 11% RH (FIG. 25). […]

[6] = Storage and XRPD reanalysis; assay type: physicochemical; details: reanalyzed
Source text: Material G: Alpha-1062 Gluconate, Samples 8235-87-01 and 8235-100-02 (Table 15). Material G has been observed from evaporative experiments of both 1,4-dioxane and THF. […] Based on the spontaneous conversion, Material G is metastable with Form B at that condition. Material G was not observed during any of the water activity slurries or relative humidity work.
Amorphous: Alpha-1062 Gluconate, sample 8235-76-13 (Table 16) has been observed from slow evaporation from methanol (Table 5). […] No significant impurity increases were observed by ^1H NMR. • Thermal Analysis (FIG. 35). A cyclic DSC was conducted to determine the glass transition (Tg) temperature of the amorphous solid. The glass transition temperature was determined to be near 41° C. Decomposition was observed upon continued heating with no nucleation.

[7] = steady-state, human brain vs blood; cited from earlier work
[8] = IPA/H2O 97:03 v/v, 0.31 aw, 13 d
[9] = MEK/H2O 98:02 v/v, 0.42 aw, 13 d
[10] = water activity slurries and RH stressing

Question: What does the source list for `COc1ccc2c3c1O[C@H]1C[C@@H](OC(=O)c4ccccc4)C=C[C@@]31CCN(C)C2.O=C(O)C(O)C(O)C(O)C(O)CO` [Form A, Alpha-1062 gluconate]?
Answer: Hygroscopicity (DVS assessment) [1]: significant hygroscopicity above 75% RH; DVS hysteresis [1]: Hysteresis was observed; DVS hysteresis ([1]; listed as CA19-1144): hysteresis observed; DVS wt. gain ([1]; from 5 to 75% RH (sorption)): 0.57 % wt.; DVS wt. gain ([1]; from 5 to 75% RH (sorption), listed as CA19-1144): 0.57% wt. gain from 5 to 75% RH; DVS wt. gain ([1]; from 75 to 85% RH (sorption)): 2.97 % wt.; DVS wt. gain ([1]; from 75 to 85% RH (sorption), listed as CA19-1144): 2.96% wt. gain from 75 to 85% RH; DVS wt. loss ([1]; from 85 to 5% RH (desorption)): 2.98% wt. loss from 85 to 5% RH; DVS wt. gain ([1]; from 85 to 95% RH (sorption)): 8.7 % wt.; DVS wt. gain ([1]; from 85 to 95% RH (sorption), listed as CA19-1144): 8.67% wt. gain from 85 to 95% RH; DVS wt. loss ([1]; from 95 to 85% RH (desorption)): 1.73% wt. loss from 95 to 85% RH; XRPD of post DVS sample (solid form) [1]: Form A+minor peaks of Form B; XRPD of post DVS sample (solid form) ([1]; listed as CA19-1144): Form A + B (trace); Water gain at stable desorption plateau ([1]; weight within stable plateau on desorption): more than 3 mol/mol; Result (solid form after slurry) ([2]; EtOH): C + A; Result (solid form after slurry) ([2]; acetone): C + D; Result (solid form after slurry) ([3]; MEK/H2O 98:02 v/v, 0.42 aw, 1 d): C + B; Result (solid form after slurry) ([3]; MEK/H2O 98:02 v/v, 0.42 aw, 2 d): C + B; Result (solid form after slurry) ([3]; MEK/H2O 99:01 v/v, 0.27 aw, 7 d): C + A; Water activity at which the form is the most stable form [3]: less than 0.12 aw; Result (solid form by XRPD) ([4]; 43% RH, 5 d): kinetically stable; Result (solid form by XRPD) ([4]; 75% RH, 1 d): D + minor A; Result (solid form by XRPD) ([4]; 75% RH, 2 d): D + minor B

Question: What does the source list for `COc1ccc2c3c1O[C@H]1C[C@@H](OC(=O)c4ccccc4)C=C[C@@]31CCN(C)C2.O=C(O)C(O)C(O)C(O)C(O)CO` [Form B, Alpha-1062 gluconate]?
Answer: Hygroscopicity (DVS assessment) [1]: limited hygroscopicity; DVS wt. loss ([1]; from 15-5% RH (desorption)): 6.8% wet loss from 15-5% RH % wt.; XRPD of post DVS sample (solid form) [1]: anhydrous Form A; Solid form by XRPD after heating ([5]; 40-75° C., 10 min (in DSC)): partial dehydration and conversion to a mixture of Forms D and C; also recorded: Form D + C + peak; Result (solid form after slurry) [3, 8]: C + B; Result (solid form after slurry) [3, 9]: C + B; Water activity at which the form is the most stable form [3]: Above 0.5 aw; Water activity of solvent systems in which the form was observed ([3]; in equilibrium Form B/Form C between 0.31 and 0.52 aw): above 0.52 aw; Result (solid form by XRPD) ([4]; 0% RH, P2O5, 1 d): dehydrate to Form A; Result (solid form by XRPD) ([4]; 57% RH, 4 d): remained Form B

Question: Which “Result (solid form by XRPD)” value ([4]; 0% RH, P2O5, 1 d) does the source give for `COc1ccc2c3c1O[C@H]1C[C@@H](OC(=O)c4ccccc4)C=C[C@@]31CCN(C)C2.O=C(O)C(O)C(O)C(O)C(O)CO` [Form C + B, Alpha-1062 gluconate] here?
Answer: The value was “C+ A”.

Question: With `COc1ccc2c3c1O[C@H]1C[C@@H](OC(=O)c4ccccc4)C=C[C@@]31CCN(C)C2.O=C(O)C(O)C(O)C(O)C(O)CO` [Form C, Alpha-1062 gluconate] as the compound, how does the “Hygroscopicity (DVS assessment)” value [1] read?
Answer: The value was “significant hygroscopicity above 75% RH”.

Question: What about the DVS hysteresis [1] of the same compound?
Answer: The DVS hysteresis was “hysteresis observed”.

Question: And the “Water retained after DVS” value ([1]; DVS corrected for KF water content at 11% RH)?
Answer: The value was ~1.4 mol/mol.

Question: And the DVS wt. gain ([1]; from 5-65% RH (sorption))?
Answer: Its DVS wt. gain is 0% wt. gain from 5-65% RH.

Question: And the DVS wt. gain ([1]; from 5 to 75% RH (sorption))?
Answer: Its DVS wt. gain is “no significant weight gain”.

Question: And the DVS wt. retained ([1]; from 75-5% RH (desorption))?
Answer: The DVS wt. retained was ~3% wt. retained from 75-5% RH.

Question: And the “XRPD of post DVS sample (solid form)” value [1]?
Answer: The value was “mixture of Forms C and B; also recorded: Form C + B”.

Question: What about the “Solid form by XRPD after vacuum storage” value ([5]; vacuum, 45° C., 3 hrs) of the same compound?
Answer: Its value is “remained Form C with the presence of a minor amount of Form A”.

Question: And the “Result (solid form after slurry)” value [3, 8]?
Answer: The value was “C + B”.

Question: What about the “Result (solid form after slurry)” value [3, 9] of the same compound?
Answer: Its value is “C + B”.

Question: And the “Water activity at which the form is the most stable form” value [3]?
Answer: Its value is “up to 0.5 aw”.

Question: What about the “Result (solid form by XRPD)” value ([4]; 0% RH, P2O5, 1 d) of the same compound?
Answer: Its value is “C + minor A”.

Question: What about the “Result (solid form by XRPD)” value ([4]; 11% RH, 4 d) of the same compound?
Answer: The value was “remained Form C”.

Question: And the “Result (solid form by XRPD)” value ([4]; 11% RH, 7 d)?
Answer: Its value is “remained Form C”.

Question: With `COc1ccc2c3c1O[C@H]1C[C@@H](OC(=O)c4ccccc4)C=C[C@@]31CCN(C)C2.O=C(O)C(O)C(O)C(O)C(O)CO` [Form D + A, Alpha-1062 gluconate] as the compound, how does the “Result (solid form by XRPD)” value ([4]; 75% RH, 4 d) read?
Answer: The value was “B + D”.

Question: With `COc1ccc2c3c1O[C@H]1C[C@@H](OC(=O)c4ccccc4)C=C[C@@]31CCN(C)C2.O=C(O)C(O)C(O)C(O)C(O)CO` [Form D + B, Alpha-1062 gluconate] as the compound, how does the “Result (solid form by XRPD)” value ([4]; 75% RH, 1 d) read?
Answer: The value was “D + B”.

Question: Which results are given for `COc1ccc2c3c1O[C@H]1C[C@@H](OC(=O)c4ccccc4)C=C[C@@]31CCN(C)C2.O=C(O)C(O)C(O)C(O)C(O)CO` [Form D, Alpha-1062 gluconate]?
Answer: Result (solid form after slurry) [3, 8]: C + B; Result (solid form after slurry) [3, 9]: C + B; Water activity at which the form is the most stable form [3]: does not appear stable at any of the conditions evaluated; Result (solid form by XRPD) ([4]; 75% RH, 1 d): Form D + minor B; Relative humidity at which the form converts to Form C [4, 10]: < 52 % RH; Relative humidity of extended exposure at which the form converts to Form B [4, 10]: ≥ 52 % RH

Question: For `COc1ccc2c3c1O[C@H]1C[C@@H](OC(=O)c4ccccc4)C=C[C@@]31CCN(C)C2.O=C(O)C(O)C(O)C(O)C(O)CO` [Forms B + D, Alpha-1062 gluconate], which “Result (solid form after slurry)” value ([3]; MEK/H2O 97:03 v/v, 0.52 aw, 7 d) is on record?
Answer: Its value is “B + C”.

Question: For `COc1ccc2c3c1O[C@H]1C[C@@H](OC(=O)c4ccccc4)C=C[C@@]31CCN(C)C2.O=C(O)C(O)C(O)C(O)C(O)CO` [Material G, Alpha-1062 gluconate], which “Solid form by XRPD on reanalysis” value ([6]; 5 weeks) is on record?
Answer: Its value is “partially converted to Form B; also recorded: Material G + Form B”.

Question: Which “Solid form by XRPD on reanalysis” value ([6]; 5 weeks) does the source give for `COc1ccc2c3c1O[C@H]1C[C@@H](OC(=O)c4ccccc4)C=C[C@@]31CCN(C)C2.O=C(O)C(O)C(O)C(O)C(O)CO` [amorphous Alpha-1062 Gluconate, Alpha-1062 gluconate] here?
Answer: The value was “amorphous”.

Question: And the “Solid form by XRPD on reanalysis” value ([6]; 5 weeks, listed as Amorphous)?
Answer: The value was “remain amorphous”.

Question: And the “Solid form by XRPD on reanalysis” value ([6]; 13 days)?
Answer: Its value is “Form B + C”.

Question: And the “Solid form by XRPD on reanalysis” value ([6]; 13 days, listed as Amorphous)?
Answer: Its value is “spontaneously crystallized to a mixture of Forms B and C”.

Question: Which “brain-to-blood concentration ratio (BBCR)” value [7] does the source give for `COc1ccc2c3c1O[C@H]1C[C@@H](O)C=C[C@@]31CCN(C)C2` [galantamine] here?
Answer: Its value is < 2.

Source: US12157743B2, “Solid forms of Alpha-1062 gluconate” (priority 2021, dated 2024)
